# Data reported in ChEMBL document CHEMBL5465560, “Selectivity Literature for EUbOPEN Chemogenomic Library” (2024).
# Columns and labels:
# [1] = biological target: Serine/threonine-protein kinase MARK1 (Homo sapiens) (UniProt Q9P0L2); experiment: Selectivity interaction (Ambit KINOMEscan and KiNATiv profiling in Jurkat cells) EUB0000090b MARK1; type: cell-based; settings: at 1 µM
# [2] = biological target: Insulin-like growth factor 1 receptor (Homo sapiens, UniProt P08069); experiment: Selectivity interaction (KinomeScan (DiscoverX)) EUB0000695a IGF1R; settings: at 100 nM
# [3] = biological target: T1, Ephrin type-A receptor 8 (Homo sapiens) (UniProt P29322); experiment: Selectivity interaction (KinomeScan (DiscoverX)) EUB0000229b EPHA8; settings: at 10 µM
# T1 sequence (whole entry): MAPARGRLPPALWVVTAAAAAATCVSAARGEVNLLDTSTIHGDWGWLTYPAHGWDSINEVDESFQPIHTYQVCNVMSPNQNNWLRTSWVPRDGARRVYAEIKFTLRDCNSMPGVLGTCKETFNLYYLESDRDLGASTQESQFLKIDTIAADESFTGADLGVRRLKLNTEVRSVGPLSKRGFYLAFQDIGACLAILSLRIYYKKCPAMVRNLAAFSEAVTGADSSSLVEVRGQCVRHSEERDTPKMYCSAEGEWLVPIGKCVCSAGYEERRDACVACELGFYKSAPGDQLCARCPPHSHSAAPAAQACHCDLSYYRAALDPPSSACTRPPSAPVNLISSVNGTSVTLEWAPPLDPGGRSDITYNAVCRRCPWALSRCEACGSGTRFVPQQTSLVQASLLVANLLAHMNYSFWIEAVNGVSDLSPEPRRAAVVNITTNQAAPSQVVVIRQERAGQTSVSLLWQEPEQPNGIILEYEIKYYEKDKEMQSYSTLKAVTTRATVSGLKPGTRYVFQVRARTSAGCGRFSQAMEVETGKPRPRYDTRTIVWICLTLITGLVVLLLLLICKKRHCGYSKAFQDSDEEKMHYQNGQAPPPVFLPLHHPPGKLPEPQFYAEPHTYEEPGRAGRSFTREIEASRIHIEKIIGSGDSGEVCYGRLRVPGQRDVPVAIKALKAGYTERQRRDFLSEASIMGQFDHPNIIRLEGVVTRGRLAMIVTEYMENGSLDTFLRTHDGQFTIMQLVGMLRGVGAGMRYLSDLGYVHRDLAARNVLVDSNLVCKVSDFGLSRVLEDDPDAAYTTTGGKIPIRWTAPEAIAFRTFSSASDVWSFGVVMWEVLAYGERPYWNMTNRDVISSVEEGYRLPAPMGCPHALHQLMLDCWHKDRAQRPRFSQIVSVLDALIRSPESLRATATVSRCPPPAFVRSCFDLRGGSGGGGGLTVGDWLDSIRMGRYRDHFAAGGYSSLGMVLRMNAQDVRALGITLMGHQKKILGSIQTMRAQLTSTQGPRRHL
# [4] = biological target: Serine/threonine-protein kinase SIK2 (Homo sapiens) (UniProt Q9H0K1); experiment: Selectivity interaction (KinomeScan (DiscoverX)) EUB0001079a SIK2; settings: at 1 µM
# [5] = biological target: T2, Receptor-interacting serine/threonine-protein kinase 1 (Homo sapiens) (UniProt Q13546); experiment: Selectivity interaction (Kinase panel (Eurofins)) EUB0001564a RIPK1; settings: at 1 µM
# T2 sequence (whole entry): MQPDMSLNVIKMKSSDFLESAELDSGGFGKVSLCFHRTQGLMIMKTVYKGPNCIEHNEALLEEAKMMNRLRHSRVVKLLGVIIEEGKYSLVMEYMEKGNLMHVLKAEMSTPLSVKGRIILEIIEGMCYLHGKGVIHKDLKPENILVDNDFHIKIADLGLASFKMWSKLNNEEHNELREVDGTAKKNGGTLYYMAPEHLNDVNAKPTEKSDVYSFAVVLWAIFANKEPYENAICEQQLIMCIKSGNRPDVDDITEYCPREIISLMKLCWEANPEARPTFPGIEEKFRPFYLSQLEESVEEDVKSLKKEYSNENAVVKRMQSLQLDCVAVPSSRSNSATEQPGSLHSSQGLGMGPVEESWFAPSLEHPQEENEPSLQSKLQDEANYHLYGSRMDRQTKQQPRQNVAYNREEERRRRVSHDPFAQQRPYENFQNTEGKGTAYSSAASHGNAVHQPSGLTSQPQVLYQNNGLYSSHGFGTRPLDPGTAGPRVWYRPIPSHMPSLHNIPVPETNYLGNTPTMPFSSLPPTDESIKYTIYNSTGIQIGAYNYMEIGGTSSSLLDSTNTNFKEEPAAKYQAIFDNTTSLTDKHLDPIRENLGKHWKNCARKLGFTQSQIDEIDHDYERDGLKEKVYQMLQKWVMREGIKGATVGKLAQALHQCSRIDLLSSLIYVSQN
# [6] = biological target: T3, Ankyrin repeat and protein kinase domain-containing protein 1 (Homo sapiens) (UniProt Q8NFD2); experiment: Selectivity interaction (KinomeScan (DiscoverX)) EUB0000618a ANKK1; settings: at 10 µM
# T3 sequence (whole entry): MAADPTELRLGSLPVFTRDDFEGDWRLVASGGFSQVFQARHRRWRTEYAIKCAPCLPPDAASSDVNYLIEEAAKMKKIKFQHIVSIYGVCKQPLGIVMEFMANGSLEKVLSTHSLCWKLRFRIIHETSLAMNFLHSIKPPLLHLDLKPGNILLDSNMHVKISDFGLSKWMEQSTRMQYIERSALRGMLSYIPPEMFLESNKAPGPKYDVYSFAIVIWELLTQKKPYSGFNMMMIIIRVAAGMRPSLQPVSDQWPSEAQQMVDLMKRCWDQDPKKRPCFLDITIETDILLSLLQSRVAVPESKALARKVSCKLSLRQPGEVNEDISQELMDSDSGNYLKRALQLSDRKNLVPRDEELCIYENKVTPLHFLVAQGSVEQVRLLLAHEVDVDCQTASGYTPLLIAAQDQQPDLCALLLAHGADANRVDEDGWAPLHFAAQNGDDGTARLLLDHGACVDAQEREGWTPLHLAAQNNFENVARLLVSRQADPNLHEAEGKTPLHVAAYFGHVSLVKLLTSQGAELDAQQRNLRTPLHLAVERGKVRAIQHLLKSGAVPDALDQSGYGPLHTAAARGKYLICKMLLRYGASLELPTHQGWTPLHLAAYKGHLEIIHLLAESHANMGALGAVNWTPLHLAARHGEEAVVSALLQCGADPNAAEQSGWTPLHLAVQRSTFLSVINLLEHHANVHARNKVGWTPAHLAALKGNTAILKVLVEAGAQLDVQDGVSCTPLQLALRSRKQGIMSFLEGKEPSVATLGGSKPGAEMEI
# Chain of Serine/threonine-protein kinase MARK1 (Homo sapiens) (Q9P0L2 whole entry, looked up): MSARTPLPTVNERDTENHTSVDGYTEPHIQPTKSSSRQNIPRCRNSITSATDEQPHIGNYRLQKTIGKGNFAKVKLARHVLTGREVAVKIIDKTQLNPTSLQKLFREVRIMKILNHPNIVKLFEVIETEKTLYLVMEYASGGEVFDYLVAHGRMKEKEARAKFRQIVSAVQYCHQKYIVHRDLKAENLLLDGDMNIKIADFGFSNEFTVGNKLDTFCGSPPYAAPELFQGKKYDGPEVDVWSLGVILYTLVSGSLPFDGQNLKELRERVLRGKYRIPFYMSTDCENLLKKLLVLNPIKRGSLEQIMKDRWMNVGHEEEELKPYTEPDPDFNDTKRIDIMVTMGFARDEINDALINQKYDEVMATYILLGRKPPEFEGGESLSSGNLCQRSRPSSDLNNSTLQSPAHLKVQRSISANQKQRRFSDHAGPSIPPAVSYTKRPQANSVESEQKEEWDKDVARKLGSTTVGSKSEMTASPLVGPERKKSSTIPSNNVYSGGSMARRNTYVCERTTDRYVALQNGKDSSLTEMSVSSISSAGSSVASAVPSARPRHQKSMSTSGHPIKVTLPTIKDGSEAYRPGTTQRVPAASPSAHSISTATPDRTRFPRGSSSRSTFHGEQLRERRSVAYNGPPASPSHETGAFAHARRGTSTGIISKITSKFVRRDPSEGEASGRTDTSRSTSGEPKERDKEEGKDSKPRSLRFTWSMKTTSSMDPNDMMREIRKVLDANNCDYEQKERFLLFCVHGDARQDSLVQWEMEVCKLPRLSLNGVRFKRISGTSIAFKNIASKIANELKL
# Chain of Insulin-like growth factor 1 receptor (P08069 31-736 limits assumed): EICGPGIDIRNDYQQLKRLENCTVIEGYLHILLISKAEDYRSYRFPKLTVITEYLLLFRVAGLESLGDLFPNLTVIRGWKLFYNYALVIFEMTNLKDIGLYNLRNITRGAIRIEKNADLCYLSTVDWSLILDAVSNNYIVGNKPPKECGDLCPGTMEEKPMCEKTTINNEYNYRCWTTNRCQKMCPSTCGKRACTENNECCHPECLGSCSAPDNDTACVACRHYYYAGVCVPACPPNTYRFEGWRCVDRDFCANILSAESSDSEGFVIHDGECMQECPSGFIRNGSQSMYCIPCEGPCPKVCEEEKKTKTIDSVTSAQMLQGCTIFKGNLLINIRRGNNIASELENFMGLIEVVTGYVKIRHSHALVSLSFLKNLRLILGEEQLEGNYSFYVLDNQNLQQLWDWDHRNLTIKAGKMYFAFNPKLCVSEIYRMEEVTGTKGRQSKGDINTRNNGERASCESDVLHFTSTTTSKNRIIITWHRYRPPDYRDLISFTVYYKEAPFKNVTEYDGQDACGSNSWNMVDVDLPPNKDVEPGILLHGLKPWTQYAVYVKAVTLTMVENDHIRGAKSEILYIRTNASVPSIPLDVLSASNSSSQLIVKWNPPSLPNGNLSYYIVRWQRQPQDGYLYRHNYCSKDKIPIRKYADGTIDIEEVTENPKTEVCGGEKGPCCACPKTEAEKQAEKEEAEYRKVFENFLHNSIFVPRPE
# Chain of Insulin-like growth factor 1 receptor (P08069 741-1367 limits assumed): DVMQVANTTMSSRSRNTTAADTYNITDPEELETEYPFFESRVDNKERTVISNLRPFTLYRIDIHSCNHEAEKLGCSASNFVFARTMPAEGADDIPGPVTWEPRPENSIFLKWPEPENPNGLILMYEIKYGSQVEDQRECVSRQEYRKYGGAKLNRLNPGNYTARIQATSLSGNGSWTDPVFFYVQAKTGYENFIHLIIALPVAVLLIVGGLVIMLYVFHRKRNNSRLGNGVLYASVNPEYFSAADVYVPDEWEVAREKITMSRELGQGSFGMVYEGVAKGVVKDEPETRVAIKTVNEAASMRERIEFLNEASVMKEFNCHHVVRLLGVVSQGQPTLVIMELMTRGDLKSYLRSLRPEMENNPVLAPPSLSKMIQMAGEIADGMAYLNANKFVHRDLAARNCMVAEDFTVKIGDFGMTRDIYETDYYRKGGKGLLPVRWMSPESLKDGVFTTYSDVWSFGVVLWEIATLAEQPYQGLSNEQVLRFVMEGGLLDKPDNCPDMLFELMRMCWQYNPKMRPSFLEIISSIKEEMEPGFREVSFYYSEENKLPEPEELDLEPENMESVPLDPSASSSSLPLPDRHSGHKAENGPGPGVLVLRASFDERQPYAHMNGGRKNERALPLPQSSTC
# Chain of Serine/threonine-protein kinase SIK2 (Homo sapiens) (Q9H0K1 whole entry, looked up): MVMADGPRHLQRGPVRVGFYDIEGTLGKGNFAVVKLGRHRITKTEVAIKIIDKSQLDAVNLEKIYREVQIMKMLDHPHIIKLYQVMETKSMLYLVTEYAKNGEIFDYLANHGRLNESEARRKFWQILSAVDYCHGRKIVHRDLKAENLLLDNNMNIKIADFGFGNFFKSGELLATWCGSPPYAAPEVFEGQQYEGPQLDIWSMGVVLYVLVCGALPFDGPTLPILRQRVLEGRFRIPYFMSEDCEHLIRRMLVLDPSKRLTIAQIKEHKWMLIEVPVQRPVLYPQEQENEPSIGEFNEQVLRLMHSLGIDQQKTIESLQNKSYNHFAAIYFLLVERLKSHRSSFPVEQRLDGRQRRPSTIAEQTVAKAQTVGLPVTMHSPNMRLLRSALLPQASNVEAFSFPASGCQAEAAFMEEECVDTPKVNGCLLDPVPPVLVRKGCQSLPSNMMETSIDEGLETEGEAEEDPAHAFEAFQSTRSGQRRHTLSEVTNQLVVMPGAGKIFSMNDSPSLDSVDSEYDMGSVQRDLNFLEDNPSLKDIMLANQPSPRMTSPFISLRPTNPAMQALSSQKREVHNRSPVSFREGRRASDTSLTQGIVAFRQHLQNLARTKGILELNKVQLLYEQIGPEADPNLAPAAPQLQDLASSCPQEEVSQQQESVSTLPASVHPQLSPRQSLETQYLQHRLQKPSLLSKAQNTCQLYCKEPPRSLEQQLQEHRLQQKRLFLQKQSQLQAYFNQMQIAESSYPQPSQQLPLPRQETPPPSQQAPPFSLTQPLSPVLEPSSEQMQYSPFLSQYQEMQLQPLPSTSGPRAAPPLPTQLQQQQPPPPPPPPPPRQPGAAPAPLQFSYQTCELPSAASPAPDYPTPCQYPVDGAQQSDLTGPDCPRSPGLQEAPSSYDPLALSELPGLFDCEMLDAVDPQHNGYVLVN
smiles,measurement,setting,value
CN(C)C/C=C/C(=O)Nc1ccc(C(=O)N2CCCC(Nc3ncc(Cl)c(-c4c[nH]c5ccccc45)n3)C2)cc1 (stereo unspecified),% of control,[1],100%
Cc1cc(F)c(C(=O)Nc2cccc(-c3nncn3C(C)C)n2)cc1-n1cnc(C2CC2)c1,% of control,[2],100%
COc1cc(N(C)c2ccnc3ccc(C(F)(F)F)cc23)cc(OC)c1OC,% binding,[3],94%
Nc1cnc(N2CCc3cc(S(=O)(=O)Nc4c(F)cc(Cl)cc4F)cc(N4CCCC4=O)c32)nc1 [TP-020n],% of control,[4],100%
CC[C@@H](Nc1c(C#N)c(-c2ccc(-c3cccc(C)c3F)cc2)nc2cnccc12)C(=O)O [BAY-091],% of inhibition,[5],21.2%
O[C@H]1CC[C@H](Nc2ncc3nc(Nc4c(F)cc(F)cc4F)n([C@H]4CCOC4)c3n2)CC1,% of control,[6],100%
